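Dose response: 5 concentrations. Exposure: 48 h. Format: 96-well plates. Endpoint: linear interpolation; highest concentration if not reached. At the GI50, growth is halved.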 The source made the active and inactive calls. No stated cut-off is given here; in the data, active = GI50 up to about 1.1 µM and inactive = higher.
Legend:
Experiment in all cases: NCI tumour cell line growth inhibition, 48 h
CAKI-1 = test system: CAKI-1
COLO 205 = test system: COLO 205
EKVX = test system: EKVX
HOP-92 = test system: HOP-92
HT-29 = test system: HT-29
IGROV-1 = test system: IGROV-1
MOLT-4 = test system: MOLT-4
NCI-H23 = test system: NCI-H23
OVCAR-8 = test system: OVCAR-8
SF-295 = test system: SF-295
SK-MEL-28 = test system: SK-MEL-28
SK-MEL-2 = test system: SK-MEL-2
SK-MEL-5 = test system: SK-MEL-5
SN12C = test system: SN12C
SW-620 = test system: SW-620
U-251 = test system: U-251
UACC-257 = test system: UACC-257
UACC-62 = test system: UACC-62
UO-31 = test system: UO-31

For `C=CCc1cccc(/C=N\N/C(N)=N/O)c1O`, which GI50 (CAKI-1) is on record?
The GI50 was 3.46 µM (inactive).

And the GI50 (COLO 205)?
The GI50 was 5.01 µM (inactive).

What about the GI50 (EKVX) of the same compound?
Its GI50 is 3.06 µM (inactive).

What about the GI50 (HOP-92) of the same compound?
Its GI50 is 6.56 µM (inactive).

And the GI50 (HT-29)?
The GI50 was 6.59 µM (inactive).

And the GI50 (IGROV-1)?
The GI50 was 4.59 µM (inactive).

What about the GI50 (MOLT-4) of the same compound?
The GI50 was 3.1 µM (inactive).

And the GI50 (NCI-H23)?
The GI50 was 3.22 µM (inactive).

What about the GI50 (OVCAR-8) of the same compound?
Its GI50 is 3.89 µM (inactive).

And the GI50 (SF-295)?
The GI50 was 2.31 µM (inactive).

And the GI50 (SK-MEL-28)?
Its GI50 is 11.9 µM (inactive).

And the GI50 (SK-MEL-2)?
Its GI50 is 6.3 µM (inactive).

And the GI50 (SK-MEL-5)?
The GI50 was 3.76 µM (inactive).

And the GI50 (SN12C)?
Its GI50 is 4.8 µM (inactive).

What about the GI50 (SW-620) of the same compound?
Its GI50 is 6.52 µM (inactive).

And the GI50 (U-251)?
The GI50 was 4.51 µM (inactive).

And the GI50 (UACC-257)?
Its GI50 is 4.62 µM (inactive).

What about the GI50 (UACC-62) of the same compound?
The GI50 was 2.64 µM (inactive).

And the GI50 (UO-31)?
Its GI50 is 1.45 µM (inactive).

How did the GI50 (CAKI-1) turn out when `Cc1ccc2cc3cccc(C(=O)NCCN(C)C)c3nc2c1` was run?
Its GI50 is 0.275 µM (active).

And the GI50 (COLO 205)?
Its GI50 is 0.483 µM (active).

What about the GI50 (EKVX) of the same compound?
Its GI50 is 1.14 µM (inactive).

And the GI50 (HOP-92)?
The GI50 was 0.376 µM (active).

And the GI50 (HT-29)?
The GI50 was 0.449 µM (active).

What about the GI50 (IGROV-1) of the same compound?
Its GI50 is 1.42 µM (inactive).

And the GI50 (MOLT-4)?
Its GI50 is 0.321 µM (active).

What about the GI50 (NCI-H23) of the same compound?
The GI50 was 1.25 µM (inactive).

What about the GI50 (OVCAR-8) of the same compound?
The GI50 was 0.631 µM (active).

What about the GI50 (SF-295) of the same compound?
The GI50 was 0.832 µM (active).

And the GI50 (SK-MEL-28)?
Its GI50 is 1.63 µM (inactive).

What about the GI50 (SK-MEL-2) of the same compound?
The GI50 was 1.87 µM (inactive).

And the GI50 (SK-MEL-5)?
Its GI50 is 1.32 µM (inactive).

And the GI50 (SN12C)?
Its GI50 is 0.893 µM (active).

And the GI50 (SW-620)?
Its GI50 is 0.514 µM (active).

And the GI50 (U-251)?
Its GI50 is 1.66 µM (inactive).

And the GI50 (UACC-257)?
The GI50 was 0.946 µM (active).

And the GI50 (UACC-62)?
The GI50 was 1.37 µM (inactive).

And the GI50 (UO-31)?
Its GI50 is 0.839 µM (active).

What does the source list for `CC(=O)OC(C)(C)/C=C/C(=O)[C@](C)(O)[C@H]1[C@H](O)C[C@@]2(C)[C@@H]3CC=C4[C@@H](C[C@H](O)C(=O)C4(C)C)[C@]3(CO)C(=O)C[C@]12C` [CUCURBITACIN A]?
GI50 (CAKI-1): 0.243 µM (active); GI50 (COLO 205): 0.318 µM (active); GI50 (EKVX): 0.364 µM (active); GI50 (HOP-92): 0.237 µM (active); GI50 (HT-29): 0.308 µM (active); GI50 (IGROV-1): 0.634 µM (active); GI50 (MOLT-4): 3.1 µM (inactive); GI50 (NCI-H23): 0.536 µM (active); GI50 (OVCAR-8): 0.615 µM (active); GI50 (SF-295): 0.314 µM (active); GI50 (SK-MEL-28): 0.132 µM (active); GI50 (SK-MEL-2): 0.1 µM (active); GI50 (SK-MEL-5): 0.316 µM (active); GI50 (SN12C): 0.448 µM (active); GI50 (SW-620): 0.367 µM (active); GI50 (U-251): 0.233 µM (active); GI50 (UACC-257): 0.364 µM (active); GI50 (UACC-62): 0.543 µM (active); GI50 (UO-31): 0.317 µM (active)

Which results are given for `O=[N+]([O-])c1ccccc1S(=O)(=O)c1cccc2c1NCCC2`?
GI50 (CAKI-1): 63.5 µM (inactive); GI50 (COLO 205): 60.8 µM (inactive); GI50 (EKVX): 99.3 µM (inactive); GI50 (HOP-92): 32.7 µM (inactive); GI50 (HT-29): 29.7 µM (inactive); GI50 (IGROV-1): 34.3 µM (inactive); GI50 (MOLT-4): 21.5 µM (inactive); GI50 (OVCAR-8): 69.3 µM (inactive); GI50 (SF-295): 31.5 µM (inactive); GI50 (SK-MEL-28): 45.6 µM (inactive); GI50 (SK-MEL-2): 21.6 µM (inactive); GI50 (SK-MEL-5): 19.7 µM (inactive); GI50 (SN12C): 86.7 µM (inactive); GI50 (SW-620): > 100 µM (inactive); GI50 (UACC-257): 18 µM (inactive); GI50 (UACC-62): 24.2 µM (inactive); GI50 (UO-31): 47.4 µM (inactive)

Which results are given for `Oc1c(CNCCCN2CCCC2)cc(Cl)c2cccnc12`?
GI50 (CAKI-1): 3.03 µM (inactive); GI50 (COLO 205): 3.79 µM (inactive); GI50 (EKVX): 1.75 µM (inactive); GI50 (HOP-92): 7 µM (inactive); GI50 (HT-29): 5.3 µM (inactive); GI50 (IGROV-1): 6.85 µM (inactive); GI50 (MOLT-4): 2.77 µM (inactive); GI50 (NCI-H23): 11 µM (inactive); GI50 (OVCAR-8): 3.24 µM (inactive); GI50 (SF-295): 2.19 µM (inactive); GI50 (SK-MEL-28): 11.2 µM (inactive); GI50 (SK-MEL-2): 11.1 µM (inactive); GI50 (SK-MEL-5): 1.36 µM (inactive); GI50 (SN12C): 5.64 µM (inactive); GI50 (SW-620): 4.01 µM (inactive); GI50 (U-251): 4.09 µM (inactive); GI50 (UACC-257): 11.4 µM (inactive); GI50 (UACC-62): 2.21 µM (inactive); GI50 (UO-31): 3.76 µM (inactive)

What does the source list for `COc1cccc(C2C(C(=O)O)=C(CO)Oc3cc4c(cc32)OCO4)c1OC` (configuration not stated)?
GI50 (CAKI-1): > 100 µM (inactive); GI50 (COLO 205): > 100 µM (inactive); GI50 (EKVX): > 100 µM (inactive); GI50 (HOP-92): 97.7 µM (inactive); GI50 (IGROV-1): > 100 µM (inactive); GI50 (MOLT-4): > 100 µM (inactive); GI50 (NCI-H23): > 100 µM (inactive); GI50 (OVCAR-8): > 100 µM (inactive); GI50 (SF-295): > 100 µM (inactive); GI50 (SK-MEL-28): > 100 µM (inactive); GI50 (SK-MEL-2): > 100 µM (inactive); GI50 (SK-MEL-5): > 100 µM (inactive); GI50 (SN12C): > 100 µM (inactive); GI50 (SW-620): > 100 µM (inactive); GI50 (U-251): > 100 µM (inactive); GI50 (UACC-62): > 100 µM (inactive); GI50 (UO-31): > 100 µM (inactive)

With `O=P1(c2ccccc2)Nc2ccccc2SSc2ccccc2N1` as the compound, how does the GI50 (CAKI-1) read?
Its GI50 is 18.2 µM (inactive).

And the GI50 (COLO 205)?
The GI50 was 20 µM (inactive).

And the GI50 (EKVX)?
Its GI50 is 15.2 µM (inactive).

What about the GI50 (HOP-92) of the same compound?
The GI50 was 15.4 µM (inactive).

What about the GI50 (HT-29) of the same compound?
The GI50 was 19.2 µM (inactive).

What about the GI50 (IGROV-1) of the same compound?
Its GI50 is 19.7 µM (inactive).

What about the GI50 (MOLT-4) of the same compound?
Its GI50 is 18.7 µM (inactive).

What about the GI50 (NCI-H23) of the same compound?
The GI50 was 16.6 µM (inactive).

What about the GI50 (OVCAR-8) of the same compound?
Its GI50 is 18.2 µM (inactive).

What about the GI50 (SF-295) of the same compound?
Its GI50 is 14.9 µM (inactive).

What about the GI50 (SK-MEL-28) of the same compound?
Its GI50 is 18.7 µM (inactive).

And the GI50 (SK-MEL-2)?
Its GI50 is 16.7 µM (inactive).

What about the GI50 (SK-MEL-5) of the same compound?
Its GI50 is 16.9 µM (inactive).

And the GI50 (SN12C)?
The GI50 was 17.8 µM (inactive).

What about the GI50 (SW-620) of the same compound?
Its GI50 is 16.7 µM (inactive).

What about the GI50 (U-251) of the same compound?
Its GI50 is 16.7 µM (inactive).

What about the GI50 (UACC-257) of the same compound?
Its GI50 is 15.8 µM (inactive).

What about the GI50 (UACC-62) of the same compound?
Its GI50 is 15.6 µM (inactive).

And the GI50 (UO-31)?
Its GI50 is 14.1 µM (inactive).

For `CC1Oc2c(c(O)cc3oc(=O)cc(-c4ccccc4)c23)C(=O)C1C` (configuration not stated), which GI50 (CAKI-1) is on record?
Its GI50 is > 100 µM (inactive).

And the GI50 (COLO 205)?
The GI50 was > 100 µM (inactive).

What about the GI50 (EKVX) of the same compound?
The GI50 was > 100 µM (inactive).

What about the GI50 (HOP-92) of the same compound?
Its GI50 is > 100 µM (inactive).

What about the GI50 (HT-29) of the same compound?
The GI50 was > 10 µM (inactive).

And the GI50 (IGROV-1)?
The GI50 was > 100 µM (inactive).

What about the GI50 (MOLT-4) of the same compound?
The GI50 was > 100 µM (inactive).

What about the GI50 (NCI-H23) of the same compound?
Its GI50 is > 100 µM (inactive).

What about the GI50 (OVCAR-8) of the same compound?
The GI50 was > 100 µM (inactive).

And the GI50 (SF-295)?
The GI50 was > 100 µM (inactive).

What about the GI50 (SK-MEL-28) of the same compound?
Its GI50 is > 100 µM (inactive).

What about the GI50 (SK-MEL-2) of the same compound?
Its GI50 is > 100 µM (inactive).

And the GI50 (SK-MEL-5)?
The GI50 was > 100 µM (inactive).

And the GI50 (SN12C)?
The GI50 was > 100 µM (inactive).

What about the GI50 (SW-620) of the same compound?
The GI50 was > 100 µM (inactive).

And the GI50 (U-251)?
Its GI50 is > 100 µM (inactive).

And the GI50 (UACC-62)?
Its GI50 is > 100 µM (inactive).

And the GI50 (UO-31)?
The GI50 was > 100 µM (inactive).
